Assay results published in patent publication US5082942A, “Novel derivatives of tetrahydro-2,3,6,7,1H,5H,11H-(1)benzopyrano(6,7,8,ij)quinolizinone-11 usable as markers of organic compounds for the detection of said compounds by chemiluminescence or fluorescence” (Laboratories Eurobio, priority 1988, dated 1992).
≈ marks a conversion by molar mass, not a printed value. Blank lines part the entries; values can stand above or below the molecule they belong to.

Experiments:
[1] = Fluorescence and absorbance measurements; format: physicochemical; details: for ε, molecular extinction coefficient: 365 nm; for S, fluorescence sensitivity: Table 2; for RF, quantum efficiency of fluorescence: acetone and ethylacetate 75:25, 10^-6 mole/l, 20°C, relative to quinine disulphate
[2] = Chemiluminescence measurements; format: physicochemical; details: for RC, quantum efficiency of chemiluminescence: 10^-3 mole/l coumarin solution; for RE, excitation efficiency: RC = Rex × RF
[3] = Solubility in organic solvents; format: physicochemical; details: organic solvent or mixture; in tetrahydrofuran, acetone or methanol
[4] = Stability of a solution in tetrahydrofuran (high pressure liquid chromatography and fluorimetric detection); format: physicochemical; details: 2.10^-3 mole/l in tetrahydrofuran
Source text: The stability of a 2.10^-3 mole/l solution of luminarine-1 in tetrahydrofuran was studied by high pressure liquid chromatography and fluorimetric detection.

[5] = 2 mg/l in 0.1 N H2SO4; Parker method; cited from earlier work
[6] = TCPO and H2O2, (C102) 1.4 × 10^-3
[7] = TCPO and H2O2, (C102) 1.4 × 10^-6
[8] = TCPO and H2O2, (C102) 1.4 × 10^-7
[9] = TCPO and H2O2, (C102) 1.4 × 10^-8
[10] = TCPO and H2O2, (C102) 1.4 × 10^-9

SMILES: CCN(CC)c1ccc2c(C)cc(=O)oc2c1 [COUMARIN-1, dimethylamino-7 methyl-4 coumarin]
ε, molecular extinction coefficient [1]: 38 000
S, fluorescence sensitivity [1]: 57 10^3
RF, quantum efficiency of fluorescence [1]: 0.55
RC, quantum efficiency of chemiluminescence ([2]; DNPO and H2O2): 0.18 10^2 E · mole^-1
RE, excitation efficiency ([2]; DNPO and H2O2): 0.33 10^-2
RC, quantum efficiency of chemiluminescence ([2]; TCPO and H2O2, pH 7.5): 0.37 10^2 E · mole^-1
RE, excitation efficiency ([2]; TCPO and H2O2, pH 7.5): 0.0067

ε, molecular extinction coefficient [1]: 23000 M⁻¹ cm⁻¹
S, fluorescence sensitivity [1]: 36 10^3
RF, quantum efficiency of fluorescence [1]: 0.57
RC, quantum efficiency of chemiluminescence ([2]; DNPO and H2O2): 0.26 10^2 E · mole^-1
RE, excitation efficiency ([2]; DNPO and H2O2): 0.45 10^-2
RC, quantum efficiency of chemiluminescence ([2]; TCPO and H2O2, pH 7.5): 0.37 10^2 E · mole^-1
RE, excitation efficiency ([2]; TCPO and H2O2, pH 7.5): 0.0065
Imax, maximum intensity [2, 6]: 301 A.U.
RC, chemiluminescence efficiency [2, 6]: 12.0 10^4 E · mol^-1
T1/2, time for reaching half the maximum intensity after the maximum time [2, 6]: 6 s
Tmax, time for reaching the maximum intensity [2, 6]: 12 s
Imax, maximum intensity [2, 7]: 75 A.U.
RC, chemiluminescence efficiency [2, 7]: 4.14 10^4 E · mol^-1
T1/2, time for reaching half the maximum intensity after the maximum time [2, 7]: 9 s
Tmax, time for reaching the maximum intensity [2, 7]: 12 s
Imax, maximum intensity [2, 8]: 31 A.U.
RC, chemiluminescence efficiency [2, 8]: 2.31 10^4 E · mol^-1
T1/2, time for reaching half the maximum intensity after the maximum time [2, 8]: 7.2 s
Tmax, time for reaching the maximum intensity [2, 8]: 12 s
Imax, maximum intensity [2, 9]: 3.2 A.U.
RC, chemiluminescence efficiency [2, 9]: 0.40 10^4 E · mol^-1
T1/2, time for reaching half the maximum intensity after the maximum time [2, 9]: 6 s
Tmax, time for reaching the maximum intensity [2, 9]: 12 s
Imax, maximum intensity [2, 10]: 0.3 A.U.
RC, chemiluminescence efficiency [2, 10]: 0.20 10^4 E · mol^-1
T1/2, time for reaching half the maximum intensity after the maximum time [2, 10]: 4.8 s
Tmax, time for reaching the maximum intensity [2, 10]: 12 s
Imax, maximum intensity ([2]; pH 4): 24 A.U.
RC, chemiluminescence efficiency ([2]; pH 4): 1.52 10^4 E · mol^-1
T1/2, time for reaching half the maximum intensity after the maximum time ([2]; pH 4): 300 s
Tmax, time for reaching the maximum intensity ([2]; pH 4): 48 s
chemiluminescence efficiency as a function of pH ([2]; pH 4 to 8): rises up to pH6 and then falls
maximum intensity as a function of pH ([2]; pH 4 to 8): increases significantly with the pH
Imax, maximum intensity ([2]; pH 5): 17 A.U.
RC, chemiluminescence efficiency ([2]; pH 5): 1.58 10^4 E · mol^-1
T1/2, time for reaching half the maximum intensity after the maximum time ([2]; pH 5): 360 s
Tmax, time for reaching the maximum intensity ([2]; pH 5): 60 s
Imax, maximum intensity ([2]; pH 6): 25 A.U.
RC, chemiluminescence efficiency ([2]; pH 6): 2.34 10^4 E · mol^-1
T1/2, time for reaching half the maximum intensity after the maximum time ([2]; pH 6): 336 s
Tmax, time for reaching the maximum intensity ([2]; pH 6): 48 s
Imax, maximum intensity ([2]; pH 7): 110 A.U.
RC, chemiluminescence efficiency ([2]; pH 7): 2.23 10^4 E · mol^-1
T1/2, time for reaching half the maximum intensity after the maximum time ([2]; pH 7): 108 s
Tmax, time for reaching the maximum intensity ([2]; pH 7): 24 s
Imax, maximum intensity ([2]; pH 8): 245 A.U.
RC, chemiluminescence efficiency ([2]; pH 8): 1.60 10^4 E · mol^-1
T1/2, time for reaching half the maximum intensity after the maximum time ([2]; pH 8): 24 s
Tmax, time for reaching the maximum intensity ([2]; pH 8): 12 s
Tmax and T1/2 as a function of pH ([2]; pH beyond 5): decrease when the pH increases beyond 5
SMILES: Cc1cc(=O)oc2c3c4c(cc12)CCCN4CCC3 [COUMARIN-102, tetrahydro-2,3,5,6,7,1H,5H,11H-(1)-benzopyrano (6,7,8-ij) methyl-9 quinolizinone-11]
comparison of fluorescence, absorbance and chemiluminescence properties ([1]; Tables 2 and 3, versus coumarin-1 and coumarin-311): has the best fluorescence, absorbance and chemiluminescence properties
chemiluminescence efficiency RC as a function of concentration ([2]; TCPO and H2O2): increases with the coumarin 102 concentration

ε, molecular extinction coefficient [1]: 26900 M⁻¹ cm⁻¹
S, fluorescence sensitivity [1]: 40 10^3
RF, quantum efficiency of fluorescence [1]: 0.52
RC, quantum efficiency of chemiluminescence ([2]; DNPO and H2O2): 0.13 10^2 E · mole^-1
RE, excitation efficiency ([2]; DNPO and H2O2): 0.24 10^-2
RC, quantum efficiency of chemiluminescence ([2]; TCPO and H2O2, pH 7.5): 0.17 10^2 E · mole^-1
RE, excitation efficiency ([2]; TCPO and H2O2, pH 7.5): 0.0032
SMILES: Cc1cc(=O)oc2cc(N(C)C)ccc12 [COUMARIN-311, dimethylamino-7 methyl-4 coumarin]

solubility [3]: ~1000 µg/mL (≈ 2520 µM)
SMILES: O=C(Cc1cc(=O)oc2c3c4c(cc12)CCCN4CCC3)ON1C(=O)CCC1=O [luminarine-1, tetrahydro-2,3,6,7,1H,5H, 11H(1)-benzo-pyrano(6,7,8-ij) succinimidoxycarbonylmethyl-9 quinolizinone-11]
stability of solution at ambient temperature ([4]; ambient temperature, hydrolysis to acid (VIII)): deteriorates significantly in a few hours at ambient temperature
stability of frozen solution ([4]; frozen): at least two months without any apparent deterioration

SMILES: C=C[C@H]1CN2CC[C@H]1C[C@H]2[C@H](O)c1ccnc2ccc(OC)cc12 [quinine disulphate]
quantum efficiency of fluorescence (reference) [5]: 0.546
